For the data set, the target named is T1, human FAAH, microsomes from FAAH cells (Homo sapiens, UniProt O00519).
T1 construct: made in house; host or cells: Trichoplusia ni High Five cells infected with recombinant baculovirus Ac-hFAAH; microsomal fraction
T1 sequence (O00519 1-579): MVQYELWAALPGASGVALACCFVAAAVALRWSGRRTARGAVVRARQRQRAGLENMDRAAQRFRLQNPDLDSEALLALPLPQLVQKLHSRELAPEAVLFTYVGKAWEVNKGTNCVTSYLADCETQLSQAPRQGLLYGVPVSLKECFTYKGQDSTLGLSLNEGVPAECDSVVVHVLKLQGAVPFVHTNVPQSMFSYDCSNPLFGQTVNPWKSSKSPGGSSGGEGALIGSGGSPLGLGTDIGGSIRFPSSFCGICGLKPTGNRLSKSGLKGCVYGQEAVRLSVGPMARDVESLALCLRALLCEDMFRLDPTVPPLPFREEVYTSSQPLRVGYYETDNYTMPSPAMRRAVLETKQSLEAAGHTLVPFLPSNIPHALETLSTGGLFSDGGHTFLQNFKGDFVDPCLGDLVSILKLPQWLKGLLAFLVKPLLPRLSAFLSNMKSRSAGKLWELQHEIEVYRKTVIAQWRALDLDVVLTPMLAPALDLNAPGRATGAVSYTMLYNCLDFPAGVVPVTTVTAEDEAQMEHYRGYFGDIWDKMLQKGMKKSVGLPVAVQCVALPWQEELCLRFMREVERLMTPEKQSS
Put plainly: Specific activity, microsomes from FAAH cells. The data set is classed as biochemical. On the procedure: Preparation of recombinant human FAAH. Transgenic expression of the human FAAH in a baculovirus system was performed by following the method described in Nishi et al., Arch. Biochem. Biophys., 445:115-123 (2006). The cDNA encoding human FAAH (GenBank Accession No. NM_001441) was amplified by PCR using a human liver cDNA library (Invitrogen; Carlsbad, Calif.) as a template. The primer pair was 5′-[…]-3′ and 5′-[…]-3′. BglII and EcoRI endonuclease sites (underlined) were incorporated just upstream of the start codon and downstream of the stop codon of the coding sequence of FAAH, respectively. The PCR products were cloned into a pCR2.1 vector (Invitrogen) and the nucleotide sequence was verified by DNA sequencing. The cDNA fragments were then excised and directionally ligated to the BglII and EcoRI sites of the baculovirus transfer vector pAcUW21 (Lopez-Ferber et al., Baculovirus transfer vectors, in “Baculovirus Expression Protocols,” Richardson (Ed.), pp 25-63, Humana Press, Totowa, N.J., 1995). Recombinant baculoviruses harboring the human FAAH gene, Ac-hFAAH, were generated by co-transfection of Spodoptera frugiperda-derived Sf21 cells with the recombinant transfer vector plasmid and Bsu36I-cleaved BacPAK6 viral DNA (Clontech Laboratories; Mountain View, Calif.) as described in O'Reilly et al., Baculovirus Expression Vectors: A Laboratory Manual, Oxford University Press, New York, 1992. Trichoplusia ni-derived High Five cells (1×10^6 cells/ml) were inoculated with a high titer of Ac-hFAAH. At 72 hours post-infection, the infected cells were harvested by centrifugation at 2,000×g for 20 min at 4° C. and suspended in 50 mM Tris-HCl (pH 8.0) containing 150 mM NaCl, 1 mM EDTA, 1 μM pepstatin, 100 μM leupeptin, and 0.1 mg/ml aprotinin. The cell suspension was then homogenized using a Polytron homogenizer and centrifuged at 10,000×g for 20 min at 4° C. The microsomal fraction was collected by ultracentrifugation of the supernatant at 100,000×g for 60 min at 4° C. The pellet was resuspended in 20 mM Tris-HCl (pH 8.0) containing 10% (w/v) glycerol and 1% (w/v) Triton-X 100 and stored at −80° C. until use.
Comparison of the lowest detection limits of protein concentration of FAAH toward colorimetric and fluorescent substrates. In general, all assays were performed in 96-well styrene flat-bottom microtiter plates with a Spectra Max M2 spectrophotometer at 37° C. for […]. The total volume of each well was 201 μl consisting of 0.1 M sodium phosphate buffer (pH 8.0) (190 μl) containing 1% glycerol and 0.1% Triton-X 100, stock or diluted protein solution (10 μl), and the substrate solution (1 μl) in ethanol (final concentration 200 μM for 10, 11, 13 or 14) or in DMSO (final concentration 25 μM for 12, 15, or 16; 50 μM for 17). The lowest detection limits of microsomal fatty acid amide hydrolase (FAAH) by substrates were determined by the fact that the signal at 10 min after kinetic measurements are equal to or over three times the noise or basal line at 0 min. Colorimetric substrate (16) assays were performed in clear 96-well microtititer plates using an absorbance wavelength at 382 nm. The fluorescent substrates containing 5-amino-2-methoxypyridine (e.g., 10, 13) were measured at an excitation wavelength (302 nm), emission wavelength (396 nm), and auto cutoff wavelength (325 nm). Similarly, the fluorescent substrates containing 5-amino-2-methoxy-6-methylpyridine (e.g., 11, 14, and 17) were measured at an excitation wavelength (304 nm), emission wavelength (392 nm), and an auto cutoff wavelength of 325 nm. In addition, an excitation wavelength (366 nm), emission wavelength (496 nm), and auto cutoff wavelength (495 nm) were used for the substrates (e.g., 12 and 15) containing 7-amino-4-trifluoromethyl coumarin.
Specific activity determination. The assays for specific activities were performed as described above for the sensitivity assay. […]

Consider `CCCCCCCC(=O)Nc1ccc(OC)nc1` [Compound 13, N-(6-methoxypyridin-3-yl) octanamide], for which the “enhancement of activity, microsomes from FAAH-expressing cells compared with High Five cells” value came to 254 times. In addition, under “Table 4”, the “preference of FAAH for substrate (13) over (14), specific activity” value came out at 10 times. Further, for the setting “pH 8.0, 37° C., NM = not measurable at the same protein concentration as other substrates”, the “Specific activity, Microsomes from FAAH cells” value is reported as 202.6 ± 3.3 nmol/min/mg protein.

Source of the values: patent US20100160391A1, “Substituted Aminopyridines as Fluorescent Reporters for Amide Hydrolases” (priority 2006, published 2010).
